Reference: US4097591A, “N^2 -arylsulfonyl-L-argininamides and the pharmaceutically acceptable salts thereof” (Mitsubishi Chemical Industries Limited, priority 1977, dated 1978)

Each compound was assayed against T1, thrombin (Bos taurus, UniProt P00735) (assay: fibrinogen coagulation time (prolongation by a factor of two)). Conditions: pH 7.4, TABLE 2 (Sample Nos. 1-14, own numbering); bovine fibrinogen, thrombin 5 units/ml, pH 7.4, 25° C; read-out: Concentration required to prolong the coagulation time by a factor of two.
T1 construct: clotting of bovine fibrinogen
Format: biochemical
Description: The measurement of the fibrinogen coagulation time was conducted as follows:
Immediately after mixing, the reaction mixture was transferred from the ice bath to a bath maintained at 25° C. Coagulation times were taken as the period between the time of transference to the 25° C bath and the time of the first appearance of fibrin threads. […] The term "concentration required to prolong the coagulation time by a factor of two" is the concentration of an active ingredient required to prolong the normal coagulation time 50-55 seconds to 100-110 seconds.

Compared with `CCCCN(CC(=O)O)C(=O)[C@H](CCCNC(=N)N)NS(=O)(=O)c1ccc(OC)c(Cc2ccccc2)c1` [compound 2], `CCCCN(CC(=O)O)C(=O)[C@H](CCCNC(=N)N)NS(=O)(=O)c1ccc(OC)c(C2CCCCC2)c1` [compound 3, N^2-(3-cyclohexyl-4-methoxyphenylsulfonyl)-L-arginyl-N-butylglycine] is 7.6-fold lower in IC (2-fold clotting time): 38 µM for the first, 5 µM for the second.

Same assay, conditions: pH 7.4, first table (Sample Nos. 1-235); bovine fibrinogen, thrombin 5 units/ml, pH 7.4, 25° C; read-out: Concentration required to prolong the coagulation time by a factor of two

Compared with `COc1ccc2ccc(S(=O)(=O)N[C@@H](CCCNC(=N)N)C(=O)N3CCOCC3C(=O)O)cc2c1` (stereo partly drawn) [compound 189], `Cc1ccc2ccc(S(=O)(=O)N[C@@H](CCCNC(=N)N)C(=O)N3CCC(C(C)C)CC3C(=O)O)cc2c1` (stereo partly drawn) [compound 175] is 20-fold lower in IC (2-fold clotting time): 2 µM for the first, 0.1 µM for the second.

`COc1cc2ccc(S(=O)(=O)N[C@@H](CCCNC(=N)N)C(=O)N(CC(=O)O)Cc3ccccc3)cc2cc1OC` [compound 50] and `COCCN(CCC(=O)O)C(=O)[C@H](CCCNC(=N)N)NS(=O)(=O)c1ccc2cc(OC)c(OC)cc2c1` [compound 15] are the same in IC (2-fold clotting time): 2.5 µM for the first, 2.5 µM for the second.
